Data reported in ChEMBL document CHEMBL4476867, “Hydroxy formamide derivatives and their use” (2016).

Experiments:
Format in all cases: cell-based
[1] = molecular target: T1, Bone morphogenetic protein 1 (Homo sapiens, UniProt P13497); assay: Inhibition of C-terminal FLAG-6x-His epitope tagged and N-terminal human RAGE signal sequence tagged human BMP1 (23 to 721 amino acids) expressed in CHO-E1 cells pre-incubated for 10 mins before promyostatin peptide substrate addition and measured after 60 mins using 0.5 nM BMP1 by FRET based assay
T1 sequence (P13497 whole entry): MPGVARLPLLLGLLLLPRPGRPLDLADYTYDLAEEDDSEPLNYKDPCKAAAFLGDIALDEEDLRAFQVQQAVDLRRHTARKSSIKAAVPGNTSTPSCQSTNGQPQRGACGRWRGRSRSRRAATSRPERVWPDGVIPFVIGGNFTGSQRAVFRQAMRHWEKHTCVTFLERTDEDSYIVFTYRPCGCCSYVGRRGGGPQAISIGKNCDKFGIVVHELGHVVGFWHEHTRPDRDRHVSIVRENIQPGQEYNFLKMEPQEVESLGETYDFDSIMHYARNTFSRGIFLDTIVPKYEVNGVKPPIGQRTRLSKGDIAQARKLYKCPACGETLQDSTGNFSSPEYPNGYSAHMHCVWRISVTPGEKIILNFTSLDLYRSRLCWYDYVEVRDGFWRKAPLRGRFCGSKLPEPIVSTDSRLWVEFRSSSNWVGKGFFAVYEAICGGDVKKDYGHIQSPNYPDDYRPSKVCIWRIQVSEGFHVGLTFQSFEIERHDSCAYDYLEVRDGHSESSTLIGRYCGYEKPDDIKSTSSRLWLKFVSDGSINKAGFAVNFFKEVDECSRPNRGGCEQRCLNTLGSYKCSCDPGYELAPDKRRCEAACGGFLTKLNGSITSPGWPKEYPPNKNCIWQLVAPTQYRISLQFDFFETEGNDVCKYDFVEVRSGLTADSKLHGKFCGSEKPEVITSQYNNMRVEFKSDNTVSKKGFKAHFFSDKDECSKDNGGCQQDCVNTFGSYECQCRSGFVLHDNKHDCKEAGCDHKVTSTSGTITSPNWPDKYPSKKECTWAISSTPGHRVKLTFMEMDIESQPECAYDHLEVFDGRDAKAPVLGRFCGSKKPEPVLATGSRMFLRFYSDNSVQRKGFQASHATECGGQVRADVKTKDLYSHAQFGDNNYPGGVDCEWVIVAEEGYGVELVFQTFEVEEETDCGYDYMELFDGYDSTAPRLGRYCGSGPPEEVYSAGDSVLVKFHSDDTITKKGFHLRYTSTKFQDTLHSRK

[2] = molecular target: T1, Bone morphogenetic protein 1; assay: Inhibition of C-terminal FLAG-6x-His epitope tagged and N-terminal human RAGE signal sequence tagged human BMP1 (23 to 721 amino acids) expressed in CHO-E1 cells pre-incubated for 10 mins before promyostatin peptide substrate addition and measured after 30 mins using 50 nM BMP1 by FRET based assay
Tolloid-like protein 2 = molecular target: T2, Tolloid-like protein 2 (Homo sapiens, UniProt Q9Y6L7); assay: Inhibition of C-terminal Avi-6x-His epitope tagged and N-terminal human RAGE signal sequence tagged recombinant human TLL2 (26 to 1015 amino acids) expressed in CHOE1A cells incubated for 60 mins with promyostatin peptide substrate by FRET based assay
T2 sequence (Q9Y6L7 whole entry): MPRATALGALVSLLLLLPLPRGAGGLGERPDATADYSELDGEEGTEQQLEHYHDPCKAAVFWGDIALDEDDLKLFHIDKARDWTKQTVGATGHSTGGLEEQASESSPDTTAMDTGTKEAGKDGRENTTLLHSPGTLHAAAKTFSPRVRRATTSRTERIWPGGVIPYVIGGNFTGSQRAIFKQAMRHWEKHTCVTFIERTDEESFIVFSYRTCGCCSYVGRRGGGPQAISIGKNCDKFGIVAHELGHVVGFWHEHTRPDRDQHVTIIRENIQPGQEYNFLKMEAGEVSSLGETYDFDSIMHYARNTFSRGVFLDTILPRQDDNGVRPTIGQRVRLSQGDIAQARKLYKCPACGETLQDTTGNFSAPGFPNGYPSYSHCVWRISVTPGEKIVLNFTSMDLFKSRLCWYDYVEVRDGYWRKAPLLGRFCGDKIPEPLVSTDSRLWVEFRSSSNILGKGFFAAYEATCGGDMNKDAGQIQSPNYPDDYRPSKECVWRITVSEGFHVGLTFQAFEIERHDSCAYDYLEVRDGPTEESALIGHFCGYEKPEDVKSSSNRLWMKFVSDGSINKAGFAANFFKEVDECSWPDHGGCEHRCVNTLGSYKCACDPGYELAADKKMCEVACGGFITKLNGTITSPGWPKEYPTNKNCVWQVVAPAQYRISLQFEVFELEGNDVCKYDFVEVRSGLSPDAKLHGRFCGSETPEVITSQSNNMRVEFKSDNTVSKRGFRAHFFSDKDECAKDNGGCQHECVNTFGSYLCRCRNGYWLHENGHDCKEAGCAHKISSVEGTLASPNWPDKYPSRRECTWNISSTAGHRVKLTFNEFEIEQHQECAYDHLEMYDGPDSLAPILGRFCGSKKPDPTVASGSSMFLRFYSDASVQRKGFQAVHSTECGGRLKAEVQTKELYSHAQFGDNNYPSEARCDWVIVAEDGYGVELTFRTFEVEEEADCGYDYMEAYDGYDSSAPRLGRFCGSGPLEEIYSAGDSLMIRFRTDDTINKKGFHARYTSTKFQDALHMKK

Tolloid-like protein 1 = Tolloid-like protein 1 (Homo sapiens, UniProt O43897, I156V/N221S/V284A); assay: Inhibition of recombinant human TLL1 I156V/N221S/V284A mutant expressed in CHOE1A cells pre-incubated for 10 mins before promyostatin peptide substrate addition and measured after 60 mins by FRET based assay
Tolloid-like protein 1, sequence (O43897 148-1013 I156V/N221S/V284A limits assumed): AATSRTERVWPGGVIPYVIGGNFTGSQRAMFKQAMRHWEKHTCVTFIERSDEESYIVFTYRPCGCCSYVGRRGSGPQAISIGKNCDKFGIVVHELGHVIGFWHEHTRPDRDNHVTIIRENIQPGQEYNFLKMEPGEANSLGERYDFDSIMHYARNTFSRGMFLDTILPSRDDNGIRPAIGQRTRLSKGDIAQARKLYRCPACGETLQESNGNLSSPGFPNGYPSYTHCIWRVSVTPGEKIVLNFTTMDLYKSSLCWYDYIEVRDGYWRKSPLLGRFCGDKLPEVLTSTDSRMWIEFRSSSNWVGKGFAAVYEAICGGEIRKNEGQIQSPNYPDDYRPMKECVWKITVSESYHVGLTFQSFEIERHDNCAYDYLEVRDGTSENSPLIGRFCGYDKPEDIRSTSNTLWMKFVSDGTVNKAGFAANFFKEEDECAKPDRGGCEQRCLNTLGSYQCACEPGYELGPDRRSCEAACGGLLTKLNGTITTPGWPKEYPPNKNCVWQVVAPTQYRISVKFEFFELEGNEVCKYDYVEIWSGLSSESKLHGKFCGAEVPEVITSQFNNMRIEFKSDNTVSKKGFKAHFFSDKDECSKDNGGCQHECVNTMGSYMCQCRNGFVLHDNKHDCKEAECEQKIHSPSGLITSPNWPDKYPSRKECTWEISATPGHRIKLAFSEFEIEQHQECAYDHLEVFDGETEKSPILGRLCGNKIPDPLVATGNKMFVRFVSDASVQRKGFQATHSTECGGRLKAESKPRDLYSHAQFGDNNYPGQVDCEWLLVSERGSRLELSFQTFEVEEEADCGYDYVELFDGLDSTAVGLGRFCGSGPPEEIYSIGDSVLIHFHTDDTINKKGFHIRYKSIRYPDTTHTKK

Structure (SMILES)	IC50 [1] [nM]	IC50 [2] [nM]	IC50 (Tolloid-like protein 2) [nM]	IC50 (Tolloid-like protein 1) [nM]	pIC50 [1]
CCCCC[C@H](CN(O)C=O)C(=O)NCNC(=O)c1ccc(-c2cccc(OCCN3CCCC3)c2)o1	< 126	< 200	< 794	< 398	–
CCCCC[C@H](CN(O)C=O)C(=O)NCNC(=O)c1ccc(-c2cccc(C(=O)NC)c2)o1	< 126	< 200	< 794	< 398	–
CCCCC[C@H](CN(O)C=O)C(=O)NCNC(=O)c1ccc(-c2ccc(C(=O)OC)cc2)o1	< 126	< 200	< 794	< 398	–
CCCCC[C@H](CN(O)C=O)C(=O)NCNC(=O)c1ccc(-c2ccc(C)c(C(=O)O)c2)o1	< 126	< 200	< 794	< 398	–
CCCCC[C@@H](C(=O)NCNC(=O)c1ccc(-c2cc(OCC)cc(P(=O)(O)O)c2)o1)[C@@H](CC)N(O)C=O.NC(CO)(CO)CO	–	–	–	–	> 6.9
CCCCC[C@H](CN(O)C=O)C(=O)NCNC(=O)c1ccc(-c2ccc3cn(C)nc3c2)o1	< 126	< 200	< 794	< 398	–
CCCCC[C@H](CN(O)C=O)C(=O)NCNC(=O)c1ccc(-c2ccc3c(c2)S(=O)(=O)NC3)o1	< 126	< 200	< 794	< 398	–
CCCCC[C@H](CN(O)C=O)C(=O)NCNC(=O)c1ccc(-c2cccc(S(=O)(=O)N(C)C)c2)o1	< 126	< 200	< 794	< 398	–
CCCCC[C@H](CN(O)C=O)C(=O)NCNC(=O)c1ccc(-c2ccc(C#N)cc2)o1	< 126	< 200	< 794	< 398	–
CCCCC[C@H](CN(O)C=O)C(=O)NCNC(=O)c1ccc(-c2cccc(C(=O)OC(C)(C)C)c2)o1	< 126	< 200	< 794	< 398	–
CS(=O)(=O)c1cccc(-c2ccc(C(=O)NCNC(=O)[C@H](CCc3ccccc3)CN(O)C=O)o2)c1	< 126	< 200	< 794	< 398	–
O=CN(O)C[C@@H](CC1CCCC1)C(=O)NCNC(=O)c1ccc(-c2ccccc2)o1	< 126	< 200	< 794	< 398	–
CCCCC[C@H](CN(O)C=O)C(=O)NCNC(=O)c1ccc(-c2ccccc2OC)o1	< 126	< 200	< 794	< 398	–
CCCCC[C@H](CN(O)C=O)C(=O)NCNC(=O)c1ccc(-c2ccc(F)c(OC)c2)o1	< 126	< 200	< 794	< 398	–
CCCCC[C@H](CN(O)C=O)C(=O)NCNC(=O)c1ccc(-c2ccccc2O)o1	< 126	< 200	< 794	< 398	–
CCCCC[C@H](CN(O)C=O)C(=O)NCNC(=O)c1ccc(-c2cccc(OC)c2)o1	< 126	< 200	< 794	< 398	–
O=CN(O)C[C@@H](CCc1ccccc1)C(=O)NCNC(=O)c1ccc(-c2ccccc2)o1	< 126	< 200	< 794	< 398	–

Structure (SMILES)	IC50 [1] [nM]	IC50 [2] [nM]	IC50 (Tolloid-like protein 2) [nM]	IC50 (Tolloid-like protein 1) [nM]	pIC50 [1]
CCCCC[C@@H](C(=O)NCNC(=O)c1ccc(-c2cncc(C(=O)O)c2)o1)[C@@H](CC)N(O)C=O	< 126	< 200	< 794	< 398	–
CCCCC[C@H](CN(O)C=O)C(=O)NCNC(=O)c1ccc(-c2ccc(OC)c(C(=O)O)c2)o1	< 126	< 200	< 794	< 398	–
CCCCC[C@H](CN(O)C=O)C(=O)NCNC(=O)c1ccc(-c2cccc(OC)n2)o1	< 126	< 200	< 794	< 398	–
CCOc1cc(C(=O)O)cc(-c2ccc(C(=O)NCNC(=O)CCN(O)C=O)o2)c1	< 126	< 200	–	< 398	–
CCCCC[C@H](CN(O)C=O)C(=O)NCNC(=O)c1ccc(-c2cccc(C#N)c2)o1	< 126	< 200	< 794	< 398	–
CCCCC[C@H](CN(O)C=O)C(=O)NCNC(=O)c1ccc(-c2ccccc2C(=O)OC)o1	< 126	< 200	< 794	< 398	–
CCCCC[C@@H](C(=O)NCNC(=O)c1ccc(-c2cccc(/C(N)=N/O)c2)o1)[C@@H](CC)N(O)C=O	< 126	< 200	< 794	< 398	–
CCCCC[C@H](CN(O)C=O)C(=O)NCNC(=O)c1ccc(-c2cccc(P(=O)(OC)OC)c2)o1	< 126	< 200	< 794	< 398	–
CCCCC[C@@H](C(=O)NCNC(=O)C1CCC(c2ccccc2)O1)[C@@H](CC)N(O)C=O (some centres not stated)	< 126	< 200	< 794	< 398	–
CCCCC[C@H](CN(O)C=O)C(=O)NCNC(=O)c1ccc(-c2cccc(P(C)(=O)OCC)c2)o1 (some centres not stated)	< 126	< 200	< 794	< 398	–
CCCCC[C@H](CN(O)C=O)C(=O)NCNC(=O)c1ccc(-c2ccccc2C(=O)O)o1	< 126	< 200	< 794	< 398	–
CCCCC[C@@H](C(=O)NCNC(=O)c1ccc(-c2ccc(C)c(C(=O)O)c2)o1)[C@@H](CC)N(O)C=O	< 126	< 200	< 794	< 398	–
O=CN(O)C[C@@H](CCCc1ccccc1)C(=O)NCNC(=O)c1ccc(-c2ccccc2)o1	< 126	< 200	< 794	< 398	–
CCCCC[C@@H](C(=O)NCNC(=O)c1ccc(-c2cccc(OCCC)c2)o1)[C@@H](CC)N(O)C=O	< 126	< 200	< 794	< 398	–
CCCCC[C@@H](C(=O)NCNC(=O)c1ccc(-c2ccccc2)o1)[C@@H](CO)N(O)C=O	< 126	< 200	< 794	< 398	–
CCCCC[C@@H](C(=O)NCNC(=O)c1ccc(-c2ccc(OC)c(C(=O)O)c2)o1)[C@@H](CC)N(O)C=O	< 126	< 200	< 794	< 398	–
CCCCC[C@H](CN(O)C=O)C(=O)NCNC(=O)c1ccc(-c2cncc(OC)c2)o1	< 126	< 200	< 794	< 398	–
